Experiment [1] has as its system P. aeruginosa. In words: MIC, extended panel, broth micro-dilution in MHII (EUCAST/CLSI). The class given is cell-based. The settings on record: Pseudomonas aeruginosa. On the procedure:
(§1) Plates were, subsequently, incubated at 37 °C in the dark, and viable colonies counted after 16 to 24 h.
(§2) To estimate MIC values (concentration range between 0.05 and 50 µg/mL), solutions of the tested compounds (100, 10 and 1 and if needed 0.1 µg/mL in MeOH) were dispensed into wells of microtiter plate(s) and the solvent was evaporated in a fume-hood. Subsequently, suspensions of pathogen cells in the appropriate medium were dispensed to the wells of microtiter plates and the growth of pathogens were observed after 16 to 20 h of incubation at 37 °C in the dark. Positive controls were the respective pathogen cells suspended in untreated sterile media without addition of compounds(s) and negative controls were the media only. MIC values were defined as the lowest concentration of each compound with no visible growth of pathogen. All MIC tests were performed in triplicate and […]
(§3) MIC determination for compound 2 against an extended panel of bacterial strains.
(§4) Compound 2 was evaluated against a panel of Gram-negative bacteria (Hughes strain collection), including: A. baumannii ATCC 19606, wild-type; BM4454, multidrug-resistant clinical isolate; BM4652, efflux-defective derivative of BM4454; CH9622, colistin-resistant clinical isolate; E. coli ATCC 25922, wild-type; CH3130, efflux-defective ΔtolC mutant isogenic to ATCC 25922; D22, a drug-hypersensitive lpxC mutant of E. coli; CH3491, multidrug-resistant clinical isolate; CH9623 and CH9624, colistin-resistant clinical isolates carrying mcr-1; K. pneumoniae ATCC 13833, wild-type; […]
(§5) clinical isolate; CH9625 and CH9626, colistin-resistant clinical isolates; P. aeruginosa PAO1, wild-type; PAO750, efflux-defective mutant isogenic to PAO1. The in vitro antimicrobial activity of each compound was determined by measuring the MIC value using the broth micro-dilution technique in cation-adjusted Mueller-Hinton II broth (Becton-Dickinson, 212322) according to EUCAST and CLSI guidelines. Each compound prepared in MHII medium was dispensed into a 96-well round-bottomed microtiter plate to give final assay concentrations from 64 µg/mL down to 0.25 µg/mL (two-fold dilution series in 10 wells, plus two control wells: medium control with no bacteria or compound, and growth control with bacteria added but no compound). Bacteria were prepared from fresh colonies grown on non-selective MHII agar, then suspended in saline to 0.5 McFarland (≅ 1.5 × […]
(§6) 10^8 CFU/mL) with turbidity assessed using a Sensititre Nephelometer (Trek Diagnostics Systems Ltd, UK). 50 µL of this bacterial suspension was transferred to 10 mL of MHII broth to give a final bacterial concentration ≅ 5 × 10^5 CFU/mL (acceptable range 3 – 7 × 10^5 CFU/mL). 50 µL of bacterial suspension was pipetted into each well (except the medium control well, where 50 µL MHII was pipetted). Final volume in each well was 100 µL. Plates were covered and incubated without shaking for 18-20 h at 35 °C ± 2 °C. MIC was read visually, as complete inhibition of growth by the unaided eye, using the medium-only wells as the control. Each compound was assayed at least in duplicate.
(§7) Additionally, the MIC for compound 2 against clinical carbapenem-resistant strains of A. baumannii […]
(§8) determined at the Public Health Agency of Sweden (according to EUCAST recommendations).
(§9) In vitro Cytotoxicity Determination. In vitro cytotoxicity was determined by a fluorometric microculture cytotoxicity assay,7 based on hydrolysis of fluorescein diacetate to fluorescein by cells with intact plasma membranes. In short, HepG2 cells (hepatocellular carcinoma cells, ATCC), in Eagle's Minimum Essential Medium (ATCC) supplemented with 10 % fetal bovine serum, penicillin/streptomycin (100 U/100 µg/mL) and 2 mM L-glutamine, were seeded in 384-well assay plates at a density of 1000 cells/well. The cells were incubated over night at 37°C and compounds in 10 mM DMSO were added, to obtain final concentrations 64 µM – 0.25 µM in two-fold dilutions.
(§10) After incubation for 72 h at 37°C, the cells were pelleted and washed. Fluorescein diacetate was […]
(Dilution methods test growth across graded concentrations, often in twofold steps.)

Experiment [2] relates to E. coli. The description is as above. The class given is cell-based. The settings on record: Escherichia coli. The protocol: as §1, §2, §3, §4, §5, §6, §7, §8, §9, §10

The MIC is the lowest concentration that inhibits growth of the organism.

Molecules are shown by their SMILES. In brackets after ≈: the same amount, converted by molar mass. Like-named read-outs stand apart in the source and are kept apart here. Starred links: 1 amine or outer side, 2 acyl side, 3 side chain; linkers in the order of their positions; H or OH if unused. Positions of bridges follow the written chain, without caps; N, C: chain ends. Non-standard residues stand in square brackets, D forms with d. Residues, ends and D or L forms follow the SMILES beside them. X2 = CCCCCCC[C@H](CC(=O)[*:1])O[*:2]; Val(3-OH) = CC(C)(O)[C@H](N)C(=O)O; X1 = C/C=C(/N[*:1])C(=O)[*:2]; Dab = NCC[C@H](N)C(=O)O; Dap = NC[C@H](N)C(=O)O

Turning to `C/C=C1/NC(=O)[C@H](CCN)NC(=O)[C@H](CC(C)C)NC(=O)[C@H](CN)NC(=O)C[C@@H](CCCCCCC)OC(=O)[C@H](CC(=O)O)NC(=O)[C@H](C(C)(C)O)NC(=O)[C@@H](Cc2ccccc2)NC(=O)[C@H](CN)NC(=O)[C@H]([C@@H](C)O)NC1=O` [Compound 2, isopedopeptin B] ([Dap]L[Dab][X1]T[Dap][dF][Val(3-OH)]D; linker N-C via X2), the MIC in experiment [1] (PAO1, read-out: MIC P. aeruginosa PAO750) worked out at 32 µg/mL (≈ 28.6 µM); in experiment [1] (PAO1, WT, read-out: MIC P. aeruginosa PAO1), 32 µg/mL (≈ 28.6 µM); in experiment [2] (ATCC25922, WT, read-out: MIC E. coli ATCC25922), 8 µg/mL (≈ 7.16 µM); in experiment [2] (ATCC25922, read-out: MIC E. coli CH3130, ΔtolC mutant isogenic to ATCC25922), 8 µg/mL (≈ 7.16 µM); in experiment [2] (ESC, CIP, GEN, SXT, read-out: MIC E. coli CH3491), 8 µg/mL (≈ 7.16 µM); in experiment [2] (read-out: MIC E. coli D22, lpxC mutant, hypersensitive), 4 µg/mL (≈ 3.58 µM).

The record behind these values is paper PMC7684578, “Isopedopeptins A–H: Cationic Cyclic Lipodepsipeptides from Pedobacter cryoconitis UP508 Targeting WHO Top-Priority Carbapenem-Resistant Bacteria” (ACS Chemical Biology, 2020).
